Assay results from patent US20100196355A1, “Immunophilin Ligands and Methods for Modulating Immunophilin and Calcium Channel Activity” (Wyeth, priority 2007, published 2010).

Tested on: rat cortical neuron cultures
Test: Transcriptional profiling of cortical neuron cultures
Type: cell-based
Settings: 10 μM
Method: Cortical neuron cultures were prepared from E16 rat embryos. After plating for 24 hrs, cultures were treated with 10 μM immunophilin ligands and the corresponding vehicle. After treatment for 4 hrs, 12 hrs, 24 hrs and 48 hrs, cells were lysed. Total RNA from each sample was extracted with the RNEASY® Mini Kit (QIAGEN®). Double stranded cDNA was synthesized from 2 μg of each RNA sample using the […]® System (INVITROGEN®), purified, transcribed in vitro to prepare biotinylated cRNA using T7 RNA polymerase in the presence of biotin labeled UTP and CTP. The fragmented cRNAs were hybridized to a Rat Genome 230 2.0 […]® (AFFYMETRIX®, Santa Clara, Calif.) as recommended by the manufacturer. Hybridized arrays were stained according to manufacture protocols on a Fluidics Station 450 and subsequently scanned on an AFFYMETRIX® scanner 3000. The raw data was generated using AFFYMETRIX® MAS 5.0 Software. Transcriptional profiling data were analyzed in Ingenuity.

With `CO[C@H]1C[C@@H]2CC[C@@H](C)[C@@](O)(O2)C(=O)C(=O)N2CCCCC2C(=O)O[C@H]([C@H](C)C[C@@H]2CC[C@@H](O)[C@H](OC)C2)CC(=O)[C@H](C)/C=C(\C)[C@@H](O)[C@@H](OC)C(=O)[C@H](C)C[C@H](C)C2CC[C@H](/C=C/1C)ON2c1ccccc1` (some centres unmarked) [Rapamycin analogue II, 9,27-dihydroxy-3-{2-[4-hydroxy-3-methoxycyclohexyl]-1-methylethyl}-10,21-dimethoxy-6,8,12,14,20,26-hexamethyl-37-phenyl-4,9,10,12,13,14,15,16,17,18,21,22,23,24,25,26,27,32,33,34,34a-henicosahydro-3H-23,27-epoxy-18,15-(epoxyimino)pyrido[2,1-c][1,4]oxazacyclohentriacontine-1,5,11,28,29(6H, 31H)-pentone] the “fold change vs DMSO, ACTA1” value (ACTA1) was −1.6 fold, the “fold change vs DMSO, ACTA2” value (ACTA2) was 1.37 fold and the “fold change vs DMSO, AKAP5” value (AKAP5) was −1.5 fold. For the same compound, the “fold change vs DMSO, ASPH” value (ASPH) was −3.27 fold, the “fold change vs DMSO, ATP2A2” value (ATP2A2) was 2 fold and the “fold change vs DMSO, ATP2B1” value (ATP2B1) was 1.81 fold. The “fold change vs DMSO, ATP2B3” value (ATP2B3) was −1.45 fold, the “fold change vs DMSO, ATP2C1” value (ATP2C1) was −1.32 fold and the “fold change vs DMSO, CABIN1” value (CABIN1) was 1.34 fold. The “fold change vs DMSO, CACNA1B” value (CACNA1B) was −1.45 fold, the “fold change vs DMSO, CACNA1C” value (CACNA1C) was 1.82 fold and the “fold change vs DMSO, CACNA1D” value (CACNA1D) was −1.28 fold. For the same compound, the “fold change vs DMSO, CACNA2D1” value (CACNA2D1) was 5.73 fold, the “fold change vs DMSO, CACNB1” value (CACNB1) was −1.14 fold and the “fold change vs DMSO, CACNG2” value (CACNG2) was −2 fold. The “fold change vs DMSO, CACNG3” value (CACNG3) was −2.46 fold, the “fold change vs DMSO, CALM1” value (CALM1) was −1.63 fold and the “fold change vs DMSO, CALM2” value (CALM2) was −1.33 fold. For the same compound, the “fold change vs DMSO, CALM3” value (CALM3) was −1.52 fold, the “fold change vs DMSO, CALR” value (CALR) was 1.19 fold and the “fold change vs DMSO, CAMK1” value (CAMK1) was −1.43 fold. For the same compound, the “fold change vs DMSO, CAMK1G” value (CAMK1G) was −2.26 fold, the “fold change vs DMSO, CAMK2A” value (CAMK2A) was −4.13 fold and the “fold change vs DMSO, CAMK2B” value (CAMK2B) was −1.88 fold. The “fold change vs DMSO, CAMK2D” value (CAMK2D) was −1.48 fold, the “fold change vs DMSO, CAMK4” value (CAMK4) was −1.33 fold and the “fold change vs DMSO, CHP” value (CHP) was 1.54 fold. The “fold change vs DMSO, CREBBP” value (CREBBP) was 5.84 fold, the “fold change vs DMSO, CYP27B1” value (CYP27B1) was −1.38 fold and the “fold change vs DMSO, DHCR7” value (DHCR7) was 1.73 fold. The “fold change vs DMSO, DSCR1” value (DSCR1) was −1.82 fold, the “fold change vs DMSO, DSCR1L1” value (DSCR1L1) was −4.73 fold and the “fold change vs DMSO, EBP” value (EBP) was 1.32 fold. For the same compound, the “fold change vs DMSO, FDFT1” value (FDFT1) was 1.89 fold, the “fold change vs DMSO, FDPS” value (FDPS) was 2.07 fold and the “fold change vs DMSO, GRIA1” value (GRIA1) was −2.16 fold. The “fold change vs DMSO, GRIA2” value (GRIA2) was 2.71 fold, the “fold change vs DMSO, GRIN1” value (GRIN1) was −2.8 fold and the “fold change vs DMSO, GRIN2B” value (GRIN2B) was −1.57 fold. The “fold change vs DMSO, GRIN3A” value (GRIN3A) was −2.94 fold, the “fold change vs DMSO, GRINA” value (GRINA) was −1.2 fold and the “fold change vs DMSO, HDAC5” value (HDAC5) was 1.8 fold. The “fold change vs DMSO, HDAC6” value (HDAC6) was −1.13 fold, the “fold change vs DMSO, HDAC7A” value (HDAC7A) was 1.27 fold and the “fold change vs DMSO, HMGCR” value (HMGCR) was 2.26 fold. For the same compound, the “fold change vs DMSO, HTR3A” value (HTR3A) was −1.64 fold, the “fold change vs DMSO, IDI1” value (IDI1) was 2.85 fold and the “fold change vs DMSO, ITPR3” value (ITPR3) was −1.93 fold. For the same compound, the “fold change vs DMSO, LSS” value (LSS) was 13.19 fold, the “fold change vs DMSO, MAPK1” value (MAPK1) was 1.38 fold and the “fold change vs DMSO, MAPK3” value (MAPK3) was −1.19 fold. The “fold change vs DMSO, MVD” value (MVD) was 1.81 fold, the “fold change vs DMSO, MVK” value (MVK) was 1.6 fold and the “fold change vs DMSO, MYH1” value (MYH1) was −2.17 fold. The “fold change vs DMSO, MYH6” value (MYH6) was −5.93 fold, the “fold change vs DMSO, MYH7” value (MYH7) was −5.88 fold and the “fold change vs DMSO, MYL6B” value (MYL6B) was −1.68 fold. The “fold change vs DMSO, NQO1” value (NQO1) was 1.64 fold, the “fold change vs DMSO, PMVK” value (PMVK) was 1.25 fold and the “fold change vs DMSO, PPP3CB” value (PPP3CB) was −1.27 fold. The “fold change vs DMSO, PPP3CC” value (PPP3CC) was −1.27 fold, the “fold change vs DMSO, PPP3R1” value (PPP3R1) was −1.44 fold and the “fold change vs DMSO, PRKAG1” value (PRKAG1) was −1.24 fold. For the same compound, the “fold change vs DMSO, PRKAR1A” value (PRKAR1A) was −1.1 fold, the “fold change vs DMSO, PRKAR1B” value (PRKAR1B) was −3.18 fold and the “fold change vs DMSO, PRKAR2A” value (PRKAR2A) was −1.23 fold. The “fold change vs DMSO, PRKAR2B” value (PRKAR2B) was −1.5 fold, the “fold change vs DMSO, RAP1B” value (RAP1B) was −1.33 fold and the “fold change vs DMSO, SC5DL” value (SC5DL) was 1.94 fold. The “fold change vs DMSO, SQLE” value (SQLE) was 1.9 fold, the “fold change vs DMSO, TPM1” value (TPM1) was −2.83 fold and the “fold change vs DMSO, TPM3” value (TPM3) was −1.99 fold. For the same compound, the “fold change vs DMSO, TRPC1” value (TRPC1) was −1.08 fold, the “fold change vs DMSO, TRPC3” value (TRPC3) was −1.95 fold and the “fold change vs DMSO, TRPC4” value (TRPC4) was −5.42 fold. The “fold change vs DMSO, TRPV6” value (TRPV6) was 1.73 fold and the “fold change, PLAU” value (plasminogen activator (PLAU)) was −10 fold.
